According to patent publication US8642651B2, “Methods and compositions for improved chromium complexes” (VDF Futureceuticals, Inc., priority 2004, dated 2014):
“And” between values parts separate entries of the source, which are not always exact repeats. Identical values can stand only once.

Tests used:
L6 muscle cells = assay: Total glucose uptake in L6 muscle cells (2-NBDG fluorescence); format: cell-based; conditions: 2 hrs treatment
Description: Total glucose uptake was measure using fluorescent analog of glucose, 2-NBDG (2-(N-(7-nitrobenz-2-oxa-1,3-diazol-4-yl)amino)-2-deoxyglucose) from Molecular Probes Inc. L6 myoblastic cells were treated for 2 hrs with tested compounds in culture medium SkBM from Clonetics. After washing, cells were transferred to HBSA (Hepes-buffered Saline), pH 7.0 with 50 mcM of 2-NBDG without glucose. One minute later, cells were washed with ice-cold PBS, and fixed in −20 C 70% ethanol. Fluorescence was measured at 480/530 (excitation/emission).

[1] = system: Streptozocin-induced insulin deficient rats; assay: Fasted blood glucose in streptozocin-induced insulin deficient rats, chromium compounds in drinking water for four weeks; format: in vivo; conditions: for Fasted Blood Glucose (fold increase over four weeks): drinking water, about 42 μg/kg, four hrs fasting
Description: In vivo experiments gave much more dramatic differences, which are summarized in Table 1 below in which the increase in fasting blood glucose was measured after four weeks as compared to untreated animals: Streptozocin-induced insulin deficient rats were used to evaluate the insulin potentiating activity of several compounds. […] As consequence, these rats develop severe hyperglycemia. So far, certain known chromium compounds were known to potentiate action of insulin, however, the actual mechanism was not clearly understood. […] In our studies in vivo, chromium compounds were provided in drinking water for four weeks at a concentration of about 42 μg/kg. Vein blood was collected following four hrs fasting and used for fasted blood glucose level test. The study results for two tests are given below in Table 3 in which the increase in blood glucose in given as a fold increase over four weeks.

Compound | Fold over Control, Average (L6 muscle cells; Conc. 10 nM) [fold] | Fold over Control, Average (L6 muscle cells; Conc. 100 nM) [fold] | Fold over Control, Average (L6 muscle cells; Conc. 1000 nM) [fold] | Fasted Blood Glucose (fold increase over four weeks) ([1]; STUDY 1) [fold] | other results
O.O.O.O.O.O.[Cl][Cr]([Cl])[Cl] [CrCl3, CrCl3 hexahydrate, reference compound] | 1.55 | 2.05 | 2.08 | 1.32 | 
chromium picolinate [Cr-picolinate, reference compound] |  |  |  | 2.02 | Fasted Blood Glucose (fold increase over four weeks) ([1]; STUDY 2): 2.37 fold; BLOOD GLUCOSE INCREASE (% of untreated) ([1]; diabetic rats, after four weeks, untreated = 100%): 95.56%; BLOOD GLUCOSE INCREASE ([1]; diabetic rats, increase in fasting blood glucose after four weeks): 2.37
CN(C)C(=N)N=C(N)N [Metformin, reference compound] |  |  |  | 0.96 | 
chromium niacin [CrNiacin, reference compound] |  |  |  | 1.91 | 
Chromium-mono-Aminooxyacetate [CROA-1] | 1.72 | 2.36 | 2.39 |  | Fold over Control (single values) (L6 muscle cells; Conc. 10 nM): 1.41 fold and 1.66 fold and 2.10 fold; Fold over Control (single values) (L6 muscle cells; Conc. 100 nM): 2.12 fold and 2.16 fold and 2.80 fold; Fold over Control (single values) (L6 muscle cells; Conc. 1000 nM): 2.58 fold and 2.10 fold and 2.50 fold
